Values of other authors in patent US20160256406A1, “OLIGOMERIC/POLYMERIC SILICONE FLUIDS FOR USE IN TRANSDERMAL DRUG DELIVERY SYSTEMS” (priority 2015, published 2016).

Key:
[1] = at RT
[2] = at RT; remark: listed apart in the source

Row | Structure (SMILES) | Octanol/Water Partition Coefficient (Log Kow) [1] | Water Solubility [2]
1 | C[Si]1(C)O[Si](C)(C)O[Si](C)(C)O1 [D3, Hexamethylcyclotrisiloxane] | 4.5 | 
2 | C[Si]1(C)O[Si](C)(C)O[Si](C)(C)O[Si](C)(C)O1 [D4, Octamethylcyclotetrasiloxane] | 5.1 | 
3 | C[Si]1(C)O[Si](C)(C)O[Si](C)(C)O[Si](C)(C)O[Si](C)(C)O1 [D5, Decamethylcyclopentasiloxane] | 5.2-5.7 | 0.017 to 0.050 µg/mL
4 | C[Si]1(C)O[Si](C)(C)O[Si](C)(C)O[Si](C)(C)O[Si](C)(C)O[Si](C)(C)O1 [D6, Dodecamethylcyclohexasiloxane] | 6.3 | 0.005 µg/mL
5 | C[Si](C)(C)O[Si](C)(C)C [L2, Hexamethyldisiloxane] | 4.2 | 
6 | C[Si](C)(C)O[Si](C)(C)O[Si](C)(C)C [L3, Octamethyltrisiloxane] | 4.8 | 
7 | C[Si](C)(C)O[Si](C)(C)O[Si](C)(C)O[Si](C)(C)C [L4, Decamethyltetrasiloxane] | 5.4 | 
8 | C[Si](C)(C)O[Si](C)(C)O[Si](C)(C)O[Si](C)(C)O[Si](C)(C)C [L5, Dodecamethylpentasiloxane] | 6.0 | 
